# Laboratory results as given in article PMC9030254, “Target Hopping from Protein Kinases to PXR: Identification of Small-Molecule Protein Kinase Inhibitors as Selective Modulators of Pregnane X Receptor from TüKIC Library” (Cells, 2022).
# Columns and labels:
# Format in all cases: cell-based
# VDR = target: T1, VDR (Homo sapiens, UniProt P11473); test: Nuclear receptor selectivity reporter assay, VDR; details: for reduction of ligand-induced VDR activation: HepG2, 10 µM compound + 1 µM 1α,25(OH)2D3
# T1 construct: expressed in transfected cells; host or cells: HepG2
# T1 sequence (P11473 1-427): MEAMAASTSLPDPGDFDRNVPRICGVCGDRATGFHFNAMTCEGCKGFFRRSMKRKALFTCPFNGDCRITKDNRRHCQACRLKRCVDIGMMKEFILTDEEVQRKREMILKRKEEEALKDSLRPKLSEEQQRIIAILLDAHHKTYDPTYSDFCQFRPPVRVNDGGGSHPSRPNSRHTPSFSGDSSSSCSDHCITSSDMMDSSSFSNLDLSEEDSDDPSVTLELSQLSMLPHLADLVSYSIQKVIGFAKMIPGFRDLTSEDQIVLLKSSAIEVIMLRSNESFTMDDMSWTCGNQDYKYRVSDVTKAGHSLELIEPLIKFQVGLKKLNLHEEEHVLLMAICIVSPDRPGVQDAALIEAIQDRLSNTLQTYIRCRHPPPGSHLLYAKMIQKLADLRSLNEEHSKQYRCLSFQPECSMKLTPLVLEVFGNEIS
# Experimental: For testing nuclear receptor selectivity and LBP-filled PXR mutant activation, transient batch transfection was conducted as above, but with HepG2 cells and the following plasmids, with amounts per well of 0.23–0.27 µg pGL4-CYP3A4(-7830Δ7208-364) or pGL3(DR3)3Tk (as reporter for VDR), 0.01 µg pMetLuc2control, and 0.03 µg either CAR1, CAR3, VDR, or PXR(S208W/S247W/C284W) expression plasmids. In addition, 0.03 µg RXRα expression plasmid was added to CAR3 transfections. Metridia luciferase activity was measured from 10 µL of medium supernatant after adding 100 µL Renilla luciferase assay solution.
# Figure 6 Selectivity of novel PXR ligands within the NR1I group of nuclear receptors. HepG2 cells were transiently transfected with CYP3A4 reporter and expression plasmids encoding (A) CAR1 or (B) CAR3, or (C) direct repeat (DR3)3 reporter and expression plasmid encoding VDR. Cells were treated with 0.2% DMSO or 10 µM chemicals as indicated. 1α,25(OH)2D3 was used at 1 µM.
# [1] = target: T2, PXR interaction with coactivator SRC1 (Homo sapiens, UniProt O75469); test: Mammalian two-hybrid coactivator interaction assay; details: for effect on rifampicin-dependent recruitment of SRC1 by PXR: HepG2, 10 µM compound + 10 µM rifampicin; for induction of interaction of PXR with coactivator SRC1: HepG2, 10 µM, alone
# T2 construct: VP16-PXR LBD(108–434); expressed in transfected cells; host or cells: HepG2
# T2 sequence (O75469 108-434): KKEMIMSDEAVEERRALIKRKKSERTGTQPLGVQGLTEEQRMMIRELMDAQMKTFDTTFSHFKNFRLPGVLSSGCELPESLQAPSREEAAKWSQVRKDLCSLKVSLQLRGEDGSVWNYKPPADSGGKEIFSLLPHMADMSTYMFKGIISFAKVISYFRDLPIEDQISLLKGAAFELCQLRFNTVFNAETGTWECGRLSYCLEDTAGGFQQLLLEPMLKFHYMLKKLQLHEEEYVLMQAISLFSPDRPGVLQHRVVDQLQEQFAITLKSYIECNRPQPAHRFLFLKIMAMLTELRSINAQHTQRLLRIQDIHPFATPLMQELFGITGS
# Experimental: (§1) In mammalian two-hybrid corepressor/coactivator interaction assays, per well 0.24 µg pGL4-G5, 0.01 µg pGL4.75[hRluc/CMV], 0.03 µg expression plasmid encoding VP16-AD/PXR LBD fusion, and 0.03 µg expression plasmids encoding GAL4-DBD/SRC1-RID or GAL4-DBD/SMRT-RID fusions, respectively, were used. For the SMRT corepressor interaction assay, additionally 0.015 µg of RXRα expression plasmid was included.
# PXR = target: T3, PXR (Homo sapiens, UniProt O75469); test: PXR-dependent CYP3A4 reporter gene assay, antagonist mode (cotreatment with rifampicin); parameters: expressed in transfected cells; host or cells: H-P cells (HepG2 stably transfected with PXR); details: for IC50: read-out: IC50, inhibition of rifampicin-induced PXR activation
# T3 sequence (O75469 1-434): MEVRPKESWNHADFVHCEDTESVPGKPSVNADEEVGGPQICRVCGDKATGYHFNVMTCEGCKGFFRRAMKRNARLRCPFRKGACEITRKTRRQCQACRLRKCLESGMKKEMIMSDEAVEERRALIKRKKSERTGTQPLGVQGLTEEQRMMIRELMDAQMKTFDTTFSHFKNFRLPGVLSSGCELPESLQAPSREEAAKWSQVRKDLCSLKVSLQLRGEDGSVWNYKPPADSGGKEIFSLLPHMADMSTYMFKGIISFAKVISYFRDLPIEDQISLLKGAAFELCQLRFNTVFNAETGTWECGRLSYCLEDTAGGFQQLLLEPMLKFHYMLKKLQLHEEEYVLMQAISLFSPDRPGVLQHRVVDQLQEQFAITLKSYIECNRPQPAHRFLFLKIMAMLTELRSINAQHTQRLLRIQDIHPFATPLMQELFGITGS
# Source text: Figure 1 Identification of novel putative PXR ligands from the TüKIC library. (A) Workflow of the in silico screening and structures of the identified candidate ligands. (B) Concentration–response curves of the novel inhibitors for antagonism of PXR activity. (C) Concentration–response curves of the same compounds and 109 for PXR activation. […] Data are expressed as mean ± SD fold induction with respect to the DMSO-treated cells from three independent experiments. IC50 and EC50 values calculated with nonlinear regression using formula with 3 parameters (constraint bottom =1) using GraphPadPrism.
# Supplementary Figure S1. Effects of 56 in silico screened TüKIC compounds (A) alone or (B) in combination […]
# H-P cells were transiently
# Luciferase activities were measured after 24 h treatment. Data is expressed as mean ± SD %. Activation was calculated according to Zhu et al. from three independent experiments with technical triplicates. Fold induction achieved by 10 μM […]
# Green and red dashed lines represent the 100% and 50% activation, respectively.
# (1 picture or pasted object on this page, not shown here)
# [2] = target: T4, PXR interaction with corepressor SMRT (Homo sapiens, UniProt O75469); test: Mammalian two-hybrid corepressor interaction assay; details: HepG2, 10 µM
# T4 construct: VP16-PXR LBD(108–434); expressed in transfected cells; host or cells: HepG2
# T4 sequence (O75469 108-434): T2 sequence (O75469 108-434)
# T4 sequence (P19793 1-462 partner): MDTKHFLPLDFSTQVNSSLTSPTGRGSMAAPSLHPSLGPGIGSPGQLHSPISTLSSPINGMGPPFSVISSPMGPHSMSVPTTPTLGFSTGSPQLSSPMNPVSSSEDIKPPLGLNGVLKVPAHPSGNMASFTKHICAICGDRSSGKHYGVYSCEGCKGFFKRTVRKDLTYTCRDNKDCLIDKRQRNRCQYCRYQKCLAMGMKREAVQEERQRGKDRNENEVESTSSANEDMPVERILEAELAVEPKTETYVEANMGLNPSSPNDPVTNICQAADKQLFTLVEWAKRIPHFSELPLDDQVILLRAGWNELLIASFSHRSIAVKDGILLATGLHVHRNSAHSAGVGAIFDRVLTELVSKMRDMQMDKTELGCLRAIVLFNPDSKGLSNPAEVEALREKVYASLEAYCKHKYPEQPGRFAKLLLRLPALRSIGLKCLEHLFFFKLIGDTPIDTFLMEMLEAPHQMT
# Experimental: as §1
Compound,"activation of VDR on their own (VDR; HepG2, 10 µM)",reduction of ligand-induced VDR activation (VDR),effect on rifampicin-dependent recruitment of SRC1 by PXR [1],induction of interaction of PXR with coactivator SRC1 [1],IC50 (PXR),effect on constitutive interaction of PXR with corepressor SMRT [2],"activation of VDR, % of the effect of 1α,25-dihydroxy vitamin D3 (VDR; HepG2, 10 µM)","inhibition of rifampicin-mediated induction of CYP3A4 reporter activity (PXR; H-P cells, 10 µM compound + 10 µM rifampicin, 24 h)"
O=C(Cc1ccccc1)Nc1ccc(F)c(Nc2ccc3c(c2)CCCCC3=O)c1 [Compound 100],Neither CAR3 nor VDR were activated,no respective effects,abrogated the rifampicin-dependent recruitment of SRC1 by PXR,did not induce any interaction of PXR with coactivator SRC1,2.8 µM,impaired the constitutive interaction of PXR with the corepressor,–,–
Cc1ccc(NC(=O)Cc2ccccc2)cc1Nc1ccc2c(c1)CCCCC2=O [Compound 73],Neither CAR3 nor VDR were activated,51%,abrogated the rifampicin-dependent recruitment of SRC1 by PXR,did not induce any interaction of PXR with coactivator SRC1,8.3 µM,impaired the constitutive interaction of PXR with the corepressor,–,–
O=C(Nc1ccc(F)c(Nc2ccc3c(c2)CCCCC3=O)c1)c1cccc(F)c1 [Compound 109],–,–,–,interaction with SRC1 was induced,–,impaired the constitutive interaction of PXR with the corepressor,5%,does not inhibit PXR
